Biological target: T1, Neuropeptide Y receptor type 2 (Oryctolagus cuniculus, UniProt B6VRS5)
T1 sequence (B6VRS5 whole entry): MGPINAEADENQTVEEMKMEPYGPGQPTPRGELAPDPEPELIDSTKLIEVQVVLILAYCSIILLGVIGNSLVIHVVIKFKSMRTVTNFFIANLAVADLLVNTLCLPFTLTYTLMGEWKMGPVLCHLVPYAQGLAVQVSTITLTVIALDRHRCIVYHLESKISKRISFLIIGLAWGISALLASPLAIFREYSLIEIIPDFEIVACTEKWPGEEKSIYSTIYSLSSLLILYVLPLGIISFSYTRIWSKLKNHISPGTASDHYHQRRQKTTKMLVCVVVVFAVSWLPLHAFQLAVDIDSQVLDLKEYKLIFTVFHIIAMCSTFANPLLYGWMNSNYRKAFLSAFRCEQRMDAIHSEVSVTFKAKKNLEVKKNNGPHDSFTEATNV

Ki: 340 nM
SMILES: CC[C@H](C)[C@H](NC(=O)[C@H](Cc1ccc(O)cc1)NC(=O)[C@H](CCCNC(=N)N)NC(=O)[C@H](CCCNC(=N)N)NC(=O)[C@H](CC(C)C)NC(=O)[C@H](CC(=O)O)NC(=O)[C@H](C)NC(=O)[C@H](C)NC(=O)[C@H](Cc1ccc(O)cc1)NC(=O)[C@H](CCC(N)=O)NC(=O)[C@H](C)NC(=O)[C@H](CCSC)NC(=O)[C@H](CCC(N)=O)NC(=O)[C@H](CCC(=O)O)NC(=O)[C@@H]1CCCN1C(=O)[C@@H](NC(=O)[C@H](C)NC(=O)[C@H](CC(N)=O)NC(=O)[C@H](CC(=O)O)NC(=O)CNC(=O)[C@@H]1CCCN1C(=O)[C@H](Cc1ccc(O)cc1)NC(=O)[C@@H](NC(=O)[C@@H]1CCCN1C(=O)[C@H](CCC(=O)O)NC(=O)[C@H](CC(C)C)NC(=O)[C@@H]1CCCN1C(=O)[C@H](C)N)C(C)C)[C@@H](C)O)C(=O)N[C@@H](CC(N)=O)C(=O)N[C@@H](CCSC)C(=O)N[C@@H](CC(C)C)C(=O)N[C@H](C(=O)N[C@@H](CCCNC(=N)N)C(=O)N1CCC[C@H]1C(=O)N[C@@H](CCCNC(=N)N)C(=O)N[C@@H](Cc1ccc(O)cc1)C(N)=O)[C@@H](C)O [CAS_59763-91-6]

Source: BindingDB's records for doi:10.1074/jbc.271.44.27217 (Yamanouchi Pharmaceutical, 1996)
